Residues, ends and D or L forms follow the SMILES beside them. *: point of attachment. Cbz = O=C(OCc1ccccc1)*

For one assay, the system named is transfected COS cells. In kind it is cell-based.
A further assay concerns transfected HEK cells. In kind it is cell-based.

`CC(C)C[C@@H](C=O)NC(=O)[C@H](CC(C)C)NC(=O)[C@H](CC(C)C)NC(=O)OCc1ccccc1` [MG132] (Cbz-Leu-Leu-Leu-aldehyde): the “MTI-PAA expression in the presence of proteasome inhibitor” value in the assay with transfected COS cells is on record as “enhanced”. Further, the “MTI-PAA levels in the presence of proteasome inhibitor” value in the assay on transfected HEK cells was “increased levels of MTI-PAA”.
